Measurements from patent publication US5854211A, “Compounds with growth hormone releasing properties” (Novo Nordisk A/S, priority 1993, dated 1998).
Residues, ends and D or L forms follow the SMILES beside them.

System: rat pituitary cells
Test: In-vitro assay of GH secretion from cultured rat pituitary cells (rGH measured by SPA)
Format: cell-based
Conditions: mixed rat anterior pituitary cell culture, 15 min stimulation at 37° C.
Experimental: An in-vitro assay using rat pituitary cells was established to study the effect of different GH secretagogues. The mixed pituitary cell culture was isolated from the anterior pituitary of male rats and cultured for 3 days. After washing the cells were stimulated for 15 min and the amount of GH secreted measured in the culture supernatant. The isolation of rat pituitary cells was a modification of Sartor, O. et al., Endocrinology 116, 1985, pp. 952-957. Pituitaries were discharged from 250 g male Sprague-Dawley rats after decapitation. The neurointermediate lobes were removed and the remainder was placed in Gey's medium supplemented with 0.25% glucose, 2× non essential amino acid and 1% BSA (isolation buffer). The glands were cut into small pieces and transferred to a flask containing 3 ml isolation buffer +11.5 mg trypsin and 1000 μg DNase and incubated for 35 min at 37° C., 95% O2 and 70 rotations per min. The fragments were washed 3 times by sedimentation in isolation buffer and aspirated into single cells by using a pasteur pipet. After dispersion the cells were filtered though a nylon filter (160 μm) to remove undigested tissue. The cells were washed 3 times with isolation buffer supplemented with trypsin inhibitor (0.75 mg/ml) and resuspended in culture medium (DMEM supplemented with 25 mM HEPES, 4mM Glutamine, 0.75% sodium bicarbonate, 2.5% FCS, 3% horse serum, 10% rat serum, 1 nM T3 and 40 μg/L dexamethasone) to a density of 2×10^5 cells/ml. The cells were seeded into microtiter plates, 200 μl/well and cultured for 3 days at 37° C. and 8% CO2. Following the culture period the cells were washed twice with stimulation buffer (HBSS supplemented with 1% BSA, 0.25% D-glucose and 25 mM HEPES) and preincubated for 1 hour. […] The buffer was collected and analyzed for rat growth hormone (rGH) content in a scintillation proximity assay (SPA) as follows (SPA, essentially as described in U.S. Pat. […] USA 82, 1985, pp. 8672-8676). The rGH assay was performed in OptiPlates (96-well plates) suitable for direct counting in a […] TopCount (β-scintillation counter). Assay protocol: 40 μl buffer 10 μl sample (incubated stimulation buffer) 50 μl ^125 I-rGH 50 μl rabbit anti-rGH 50 μl SPA reagent (anti-rabbit antibody bound to fluomicrospheres) The plates are sealed and placed on a plate shaker for 30 minutes followed by 10 hours of incubation, settling at 10°-15° C. and counting. In the SPA, rGH bound to an anti-GH rabbit antibody (primary antibody) is reacted with a second antibody bound to fluomicrospheres (SPA Type II RIA available from Amersham). Any radiolabelled rGH which is bound to the primary antibody will be immobilized on the fluomicrospheres which will then produce light. Measurement in a β-scintillation counter makes it possible to calculate the amount of radiolabelled rGH. The amount of radiolabelled rGH bound to the fluomicrospheres decreases with an increasing content of rGH in the sample.

**Q.** For `C[C@H](NC(=O)[C@@H](Cc1c[nH]c2ccccc12)NC(=O)[C@@H](N)Cc1c[nH]cn1)C(=O)N[C@@H](Cc1c[nH]c2ccccc12)C(=O)N[C@H](Cc1ccccc1)C(=O)N[C@@H](CCCCN)C(N)=O` [H--His-D-Trp--Ala--Trp-D-Phe--Lys--NH2] (HELM PEPTIDE1{H.[dW].A.W.[dF].K.[am]}$$$$V2.0), which EC50 is on record?
**A.** 2 nM

**Q.** And the “Emax (% of GHRP-6)” value?
**A.** 100 % of GHRP-6

**Q.** For `C[C@H](NC(=O)[C@@H](Cc1ccc2ccccc2c1)NC(=O)[C@@H](C)N)C(=O)N[C@@H](Cc1c[nH]c2ccccc12)C(=O)N[C@H](Cc1ccccc1)C(=O)N[C@@H](CCCCN)C(N)=O` [H-D-Ala-D-2Nal--Ala--Trp-D-Phe--Lys--NH2] (HELM PEPTIDE1{[dA].[O=C([C@@H](Cc1ccc2ccccc2c1)N[*:1])[*:2]].A.W.[dF].K.[am]}$$$$V2.0), which EC50 is on record?
**A.** 1.8 nM

**Q.** And the “Emax (% of GHRP-6)” value?
**A.** 85 % of GHRP-6

**Q.** What does the source list for `C[C@@H](N)C(=O)N[C@H](Cc1ccc2ccccc2c1)C(=O)NCC(=O)N[C@@H](Cc1c[nH]c2ccccc12)C(=O)N[C@H](Cc1ccccc1)C(=O)N[C@@H](CCCCN)C(N)=O` [H-DAla-D2Nal--Gly--Trp-DPhe--Lys--NH2] (HELM PEPTIDE1{[dA].[O=C([C@@H](Cc1ccc2ccccc2c1)N[*:1])[*:2]].G.W.[dF].K.[am]}$$$$V2.0)?
**A.** EC50: 0.8 nM; Emax (% of GHRP-6): 75 % of GHRP-6

**Q.** Which results are given for “(2S)-((3-(4-Imidazolyl)propionyl)-D-Phe--Ala--Trp-D-Phe.psi.(CH2 NH)-6-aminohexanol”?
**A.** EC50: 5 nM; Emax (% of GHRP-6): 80 % of GHRP-6

**Q.** How did the EC50 turn out when “H-His-D-Trp-Ala-Trp-D-Phe.psi.(CH2 NH)Lys-NH2 [Example 2]” was run?
**A.** 0.5 nM

**Q.** What about the “Emax (% of GHRP-6)” value of the same compound?
**A.** 100 % of GHRP-6
